Assay results: patent EP0326640B1, “(1R,5S,6S)-2-substituted thio-6 (R)-1-hydroxyethyl -1-methyl-carbapenem - carboxylic acid derivatives” (LEDERLE (JAPAN) LTD., priority 1987, dated 1989)
≈ marks a conversion by molar mass, not a printed value. Like-named read-outs stand apart in the source and are kept apart here.

Tests used:
Proteus vulgaris HX-19 = test: Antibacterial test, agar plate dilution method (MIC), standard strains; type: cell-based; conditions: Proteus vulgaris, HX19, 18 h
Method: (§1) The antibacterial activities were tested by an agar plate dilution method in accordance with the standard method of The Japanese Chemotherapy Society [Chemotherapy, Vol. 29, 76-79 (1981)].
(§2) A Mueller-Hinton (MH) agar liquid medium of a test microorganism was cultured overnight at 37°C and the resultant culture medium was diluted with a buffered saline gelatin (BSG) solution to contain approximately 10⁶ cells of the test microorganisms per milliliter, and then the diluted solution was inoculated with a microplanter at the rate of approximately 5 microliters on a MH agar medium containing a test compound. This medium was then incubated at 37°C for 18 hours. The minimum inhibitory concentration (MIC) is determined as a minimum concentration in which no test microorganism could grow. It is noted here that the test organisms used were all standard strains.

[1] = system: Salmonella enteritidis G14; test: as above; type: cell-based; conditions: Salmonella enterica, MH agar, 37°C
Method: as §1, §2

[2] = system: Morganella morganii IFO3848; test: as above; type: cell-based; conditions: Morganella morganii, IFO3848, 18 h, MH agar, 37°C, read-out: MIC
Method: as §1, §2

[3] = system: Pseudomanas aeruginosa NCTC 10940; test: as above; type: cell-based; conditions: 18 h, MH agar, 37°C, read-out: MIC
Method: as §1, §2

[4] = system: Salmonella paratyphi 1015; test: as above; type: cell-based; conditions: Salmonella enterica, MH agar, 37°C, 18 hours, read-out: MIC
Method: as §1, §2

[5] = system: Serratia marcescens IAM1184; test: as above; type: cell-based; conditions: MH agar, 37°C
Method: as §1, §2

[6] = system: Salmonella schottmuelleri 8006; test: as above; type: cell-based; conditions: MH agar, 37°C, 18 hours, read-out: MIC
Method: as §1, §2

Proteus vulgaris OX-19 = test: as above; type: cell-based; conditions: Proteus vulgaris, OX19, 18 h
Method: as §1, §2

Salmonella typhi 901 = test: as above; type: cell-based; conditions: Salmonella enterica, TYPHI, 18 h, MH agar, 37°C
Method: as §1, §2

[7] = system: Proteus mirabilis IFO3849; test: as above; type: cell-based; conditions: Proteus mirabilis, IFO3849, 18 h
Method: as §1, §2

[8] = system: Providencia rettgeri IFO 3850; test: as above; type: cell-based; conditions: Providencia rettgeri, IFO3850, 18 h, MH agar, 37°C, read-out: MIC
Method: as §1, §2

[9] = system: Pseudomonas aeruginosa IFO 3445; test: as above; type: cell-based; conditions: IFO3445, MH agar, 37°C, 18 hours, read-out: MIC
Method: as §1, §2

[10] = system: P. aeruginosa resistant strains; test: Sensitivity test against clinical isolates, agar plate dilution method; type: cell-based; conditions: 54 strains of P. aeruginosa having an anti-Pseudomonas resistance
Method: The test procedures were based on the agar plate dilution method in accordance with the standard method of The Japanese Chemotherapy Society. The minimum inhibitory concentration (MIC) was determined in substantially the same manner as the test procedures II above using the 54 strains of P. aeruginosa having an anti-Pseudomonas resistance.

[11] = target: T1, Swine Kidney Dehydropeptidase-I (DHP-I) (Sus scrofa, UniProt P22412); test: Stability of test compounds against DHP-I by HPLC; type: in vitro ADME; conditions: 37°C, Substrate Concentration: 100 μM
T1 construct: made soluble by treatment with butanol and purified by the ammonium sulfate fraction method, thereby producing DHP-I enzyme from a 75% ammonium sulfate fraction; from tissue; host or cells: swine kidney
T1 sequence (P22412 17-384): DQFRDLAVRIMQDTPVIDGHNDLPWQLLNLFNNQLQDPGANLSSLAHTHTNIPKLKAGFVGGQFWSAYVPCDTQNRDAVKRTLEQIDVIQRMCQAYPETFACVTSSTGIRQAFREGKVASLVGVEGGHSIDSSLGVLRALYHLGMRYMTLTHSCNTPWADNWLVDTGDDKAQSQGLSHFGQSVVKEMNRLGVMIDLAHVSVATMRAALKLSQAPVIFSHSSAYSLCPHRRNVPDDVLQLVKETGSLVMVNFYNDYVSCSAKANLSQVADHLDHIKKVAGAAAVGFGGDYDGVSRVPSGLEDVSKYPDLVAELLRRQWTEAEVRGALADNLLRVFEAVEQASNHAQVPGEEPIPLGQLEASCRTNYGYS
Method: The swine kidney (8 kg) was homogenized and the enzyme protein was allowed to precipitate. After a connective lipid was removed with acetone, the resultant material was made soluble by treatment with butanol and purified by the ammonium sulfate fraction method, thereby producing DHP-I enzyme from a 75% ammonium sulfate fraction. The DHP-I enzyme was then adjusted to give an enzyme concentration of 25 mg/10 ml (phosphate buffer, pH 7.1), and divided into 1 ml portions. The portions were frozen and stored at -40°C or less until use. Crystalline compound (20) obtained in Example 11 and amorphous compound (14) obtained in Example 5 below were used as a test compound. The test compound was adjusted in situ to give a concentration of 117 µM with a 50 mM sodium phosphate buffer solution (pH =7.1). Glycyl dehydrophenylalanine (Gl-dh-Ph) and imipenem were employed as control compounds, and they were adjusted in situ each to give a concentration of 117 µM with the same sodium phosphate buffer solution. The test compound according to the present invention and the control compounds were treated in substantially the same manner as (1) above. The incubation, however, was conducted at 37°C for 4.5 hours or for 24 hours. The degree of hydrolysis of the compounds each after the test periods was measured by the HPLC method.

Row | Structure (SMILES) | MIC (Proteus vulgaris HX-19) | MIC ([1]; ENTERITIDIS, 18 h) | MIC [2] | MIC [3] | MIC [4] | MIC ([5]; 18 hours) | MIC [6] | MIC (Proteus vulgaris OX-19) | MIC (Salmonella typhi 901) | MIC ([7]; Proteus mirabilis IFO3849, MH agar, 37°C, 18 hours, read-out: MIC) | MIC [8] | MIC [9] | concentration to inhibit the growth of all the test microorganisms [10] | percent of strains inhibited at 6.25 µg/mL ([10]; concentration of 6.25 µg/ml, read-out: test microorganisms whose growth is inhibited) | MIC ([1]; 18 hours, read-out: MIC) | MIC ([5]; Serratia marcescens, IAM1184, 18 h, read-out: MIC) | MIC [7] | DEGREES OF HYDROLYSIS BY DHP-I ([11]; 4.5 hours) | DEGREES OF HYDROLYSIS BY DHP-I ([11]; 24 hours)
1 | C[C@@H](O)[C@H]1C(=O)N2C(C(=O)[O-])=C(SCc3cs[n+](C)n3)[C@H](C)[C@H]12 [Amorphous Compd. (14), (1R,5S,6S)-2-[(2-methyl-1,2,3-thiadiazolium-4-yl)methyl]thio-6-[(R)-1-hydroxyethyl]-1-methyl-carbapenem-3-carboxylate] | 1.56 µg/mL (≈ 4.39 µM) | 1.56 µg/mL (≈ 4.39 µM) | 0.39 µg/mL (≈ 1.1 µM) | 0.39 µg/mL (≈ 1.1 µM) | 1.56 µg/mL (≈ 4.39 µM) | 0.2 µg/mL (≈ 0.563 µM) | 0.39 µg/mL (≈ 1.1 µM) | 1.56 µg/mL (≈ 4.39 µM) | 0.025 µg/mL (≈ 0.0703 µM) | 6.25 µg/mL (≈ 17.6 µM) | 0.05 µg/mL (≈ 0.141 µM) | 0.39 µg/mL (≈ 1.1 µM) | – | – | – | – | – | – | –
2 | C[C@@H](O)[C@H]1C(=O)N2C(C(=O)O)=C(SCCN=CN)C[C@H]12 [Imipenem, imipenem] | 1.56 µg/mL (≈ 5.21 µM) | – | 0.39 µg/mL (≈ 1.3 µM) | 0.78 µg/mL (≈ 2.61 µM) | 1.56 µg/mL (≈ 5.21 µM) | – | 0.78 µg/mL (≈ 2.61 µM) | 1.56 µg/mL (≈ 5.21 µM) | 0.1 µg/mL (≈ 0.334 µM) | – | 0.78 µg/mL (≈ 2.61 µM) | 0.78 µg/mL (≈ 2.61 µM) | 12.5 µg/mL | ~98% | 0.78 µg/mL (≈ 2.61 µM) | 0.39 µg/mL (≈ 1.3 µM) | 6.25 µg/mL (≈ 20.9 µM) | 77.6 µM | * After 24 hours at 37°C, it has been found that most or all imipenem has been decomposed and nothing remained was detected.
